Measurements from PMC6668024 (Journal of medicinal chemistry, 2018).

Experiments:
Topo I = target: T1, Topo I (Homo sapiens, UniProt P11387); assay: Topo I inhibitory activity assay; format: biochemical
T1 sequence (P11387 1-765): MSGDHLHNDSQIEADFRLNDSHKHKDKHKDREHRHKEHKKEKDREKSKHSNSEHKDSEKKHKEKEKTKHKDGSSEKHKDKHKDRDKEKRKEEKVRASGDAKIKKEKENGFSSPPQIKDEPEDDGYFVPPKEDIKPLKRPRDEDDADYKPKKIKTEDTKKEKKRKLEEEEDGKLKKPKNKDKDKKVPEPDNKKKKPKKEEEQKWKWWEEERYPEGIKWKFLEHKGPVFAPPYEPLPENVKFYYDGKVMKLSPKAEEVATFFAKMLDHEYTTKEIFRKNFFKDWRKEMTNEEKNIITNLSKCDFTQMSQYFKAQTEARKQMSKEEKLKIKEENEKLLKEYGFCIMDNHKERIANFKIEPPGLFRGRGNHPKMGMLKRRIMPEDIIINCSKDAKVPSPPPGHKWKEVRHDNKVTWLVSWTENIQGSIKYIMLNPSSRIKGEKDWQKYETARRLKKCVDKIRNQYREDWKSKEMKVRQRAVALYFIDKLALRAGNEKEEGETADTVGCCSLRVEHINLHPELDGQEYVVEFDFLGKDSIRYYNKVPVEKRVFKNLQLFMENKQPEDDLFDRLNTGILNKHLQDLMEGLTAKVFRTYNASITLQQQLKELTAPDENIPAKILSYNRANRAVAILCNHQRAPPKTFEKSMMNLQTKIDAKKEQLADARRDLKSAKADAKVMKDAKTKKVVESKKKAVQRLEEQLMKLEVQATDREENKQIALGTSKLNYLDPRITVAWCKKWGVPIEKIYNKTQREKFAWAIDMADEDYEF

[1] = target: T2, Topo I-DNA cleavage complex (Homo sapiens, UniProt P11387); assay: Topo I-mediated DNA cleavage assay; format: biochemical; settings: EB-containing gel; for Topo I-mediated DNA cleavage (amount of nicked DNA): 100 μM or 50 μM
T2 sequence (P11387 1-765): T1 sequence (P11387 1-765)

IL-6 = IL-6 in serum, LPS sepsis model; format: in vivo, C57BL/6 mice; settings: serum 72 h after LPS
TNF-α = TNF-α in serum, LPS sepsis model; format: in vivo, C57BL/6 mice; settings: serum 72 h after LPS
[2] = In vivo pharmacokinetics, plasma levels by LC-MS/MS; set-up: species or system male C57BL/6 mice; settings: for parent compound (4 or 3) in plasma after i.v. dosing of the ester: 2 mg/kg intravenously
[3] = for body weight of treated mice: HepG-2 xenograft mice, treatment for 30 days, doses as in Figure 5
A549 = assay: MTT cytotoxicity assay, A549; format: cell-based, human; settings: 48 h
MCF-7 = assay: MTT cytotoxicity assay, MCF-7; format: cell-based, human; settings: MCF-7, MTT, 48 h
MDA-MB-231 = assay: MTT cytotoxicity assay, MDA-MB-231; format: cell-based, human; settings: MDA-MB-231, MTT, 48 h
HepG-2 = assay: MTT cytotoxicity assay, HepG-2; format: cell-based, human; settings: HepG-2, MTT, 48 h
KB = assay: MTT cytotoxicity assay, KB; format: cell-based, human; settings: 48 h
BEL-7402 = assay: MTT cytotoxicity assay, BEL-7402; format: cell-based, human; settings: BEL-7402, MTT, 48 h
SMMC-7721 = assay: MTT cytotoxicity assay, SMMC-7721; format: cell-based, human; settings: SMMC-7721, MTT, 48 h
MGC80-3 = assay: MTT cytotoxicity assay, MGC80-3; format: cell-based, human; settings: MGC80-3, MTT, 48 h
SK-N-SH = assay: MTT cytotoxicity assay, SK-N-SH; format: cell-based, human; settings: 48 h
QGY-7703 = assay: MTT cytotoxicity assay, QGY-7703; format: cell-based, human; settings: QGY-7703, MTT, 48 h
SGC-7901 = assay: MTT cytotoxicity assay, SGC-7901; format: cell-based, human; settings: SGC-7901, MTT, 48 h
Aqueous solubility = settings: parental compounds
[4] = 50 μM and 100 μM, EB-free gel (Figure 3a, 3b)

For `CC[C@@]1(O)C(=O)OCc2c1cc1n(c2=O)Cc2cc3ccccc3nc2-1` [CPT, Camptothecin, reference compound], the “Topo I inhibitory activity” value (Topo I; [4]) was “can inhibit Topo I activity” and the “Topo I-mediated DNA cleavage (amount of nicked DNA)” value [1] was “can increase the amount of nicked DNA”.

In the case of `CC[C@@]1(O)C(=O)OCc2c1cc1n(c2=O)Cc2cc3c(ccc4oc(C(C)C)nc43)nc2-1` [Compound 4, (S)-8-Ethyl-8-hydroxy-2-isopropyl-8H-oxazolo[4,5-f]pyrano[3',4':6,7]indolizino[1,2-b]quinoline-9,12(11H,14H)-dione], the “Topo I inhibitory activity” value (Topo I; 50 μM, EB-free gel (Figure 4)) is reported as “weak inhibitor” and the solubility (physchem) is reported as under 2 µg/mL.

With `CC[C@@]1(OC(=O)CNC(=O)CCC(=O)O)C(=O)OCc2c1cc1n(c2=O)Cc2cc3c(ccc4oc(C(C)C)nc43)nc2-1` [Compound 9, (S)-4-((2-((8-Ethyl-2-isopropyl-9,12-dioxo-9,11,12,14-tetrahydro-8H-oxazolo[4,5-f]pyrano[3',4':6,7]indolizno[1,2-b]quinolin-8-yl)oxy)-2-oxoethyl)amino)-4-oxobutanoic acid] the “Topo I inhibitory activity” value (Topo I; [4]) was “weak inhibition”, the “Topo I-mediated DNA cleavage (amount of nicked DNA)” value [1] was “can increase the amount of nicked DNA” and the “expression of IL-6 in mouse serum” value (IL-6) was “suppressed”. For the same compound, the “expression of TNF-α in mouse serum” value (TNF-α) was “suppressed”, the “parent compound (4 or 3) in plasma after i.v. dosing of the ester” value ([2]; mice) was “not detected” and the “concentration in plasma through oral administration” value ([2]; single oral administration, mice) was “extremely low”. For the same compound, the “body weight of treated mice” value [3] was “no major influence on body weight” and the “survival of xenograft mice on oral dosing” value ([3]; daily oral dose 5 mg/kg) was “most mice failed to reach the end point”.

In the case of `CC[C@@]1(OC(=O)CNC(=O)CCC(=O)O)C(=O)OCc2c1cc1n(c2=O)Cc2cc3c4c(ccc3nc2-1)OC(C(C)C)NC4=O` (stereo partly drawn) [Compound 11, 4-((2-(((9S)-9-Ethyl-3-isopropyl-1,10,13-trioxo-1,2,3,9,10,12,13,15-octahydro-[1,3]oxazino[5,6-f]pyrano[3',4':6,7]indolizino[1,2-b]quinolin-9-yl)oxy)-2-oxoethyl)amino)-4-oxobutanoic acid], the “Topo I inhibitory activity” value (Topo I; [4]) is reported as “almost inactive”, the “Topo I-mediated DNA cleavage (stabilization of cleavage complex)” value ([1]; 50 μM) is reported as “failed to stabilize Topo I-DNA cleavage complex” and the “expression of IL-6 in mouse serum” value (IL-6) is reported as “suppressed”. The “expression of TNF-α in mouse serum” value (TNF-α) was “suppressed”, the “parent compound (4 or 3) in plasma after i.v. dosing of the ester” value ([2]; mice) was “very low concentration” and the “concentration in plasma through oral administration” value ([2]; mouse, in vivo, po) was “extremely low”. For the same compound, the “body weight of treated mice” value [3] was “no major influence on body weight” and the “side effects, pathological anatomy of viscera” value ([3]; oral administration compared with the i.v. dosage) was “increases the occurrence of gastrointestinal flatulence”.

In the case of `CC[C@@]1(O)C(=O)OCc2c1cc1n(c2=O)Cc2cc3c(CN(C)C)c(O)ccc3nc2-1` [Topotecan, reference compound], the “Topo I-mediated DNA cleavage (amount of nicked DNA)” value [1] is reported as “can increase the amount of nicked DNA”.

In the case of “(9S)-9-Ethyl-9-hydroxy-3-isopropyl-2,3-dihydro-[1,3]oxazino[5,6-f]pyrano[3',4':6,7]indolizino[1,2-b]quinoline-1,10,13(9H,12H,15H)-trione [Compound 3]”, the IC50 (A549) is reported as 2170 nM, the IC50 (MCF-7) is reported as 10800 nM and the IC50 (MDA-MB-231) is reported as 1320 nM. It also gave an IC50 (HepG-2) of 1110 nM, an IC50 (KB) of 9760 nM and an IC50 (BEL-7402) of over 10000 nM. It also gave an IC50 (SMMC-7721) of over 10000 nM, an IC50 (MGC80-3) of 390 nM and an IC50 (SK-N-SH) of 325 nM. For the same compound, the IC50 (QGY-7703) was over 10000 nM, the IC50 (SGC-7901) was over 10000 nM and the “Topo I inhibitory activity” value (Topo I; 50 μM, EB-free gel (Figure 4)) was “high”. It also gave an aqueous solubility (Aqueous solubility) of under 2 µg/mL.
